Assay results as given in paper PMC7781311 (bioRxiv, 2021).
Where two headings read alike, the source gives them in different places.

What was measured:
[1] = system: SARS-CoV-2-S pseudotyped particles (PP); assay type: cell-based; settings: Calu-3 cells
Calu3 cells = settings: same protocol without PP, ATP content
TMPRSS2 = TMPRSS2 (Homo sapiens, UniProt O15393); test: TMPRSS2 biochemical; settings: enzyme assay, maximal efficacy
in vitro = settings: human

TMPRSS2, sequence (O15393 whole entry): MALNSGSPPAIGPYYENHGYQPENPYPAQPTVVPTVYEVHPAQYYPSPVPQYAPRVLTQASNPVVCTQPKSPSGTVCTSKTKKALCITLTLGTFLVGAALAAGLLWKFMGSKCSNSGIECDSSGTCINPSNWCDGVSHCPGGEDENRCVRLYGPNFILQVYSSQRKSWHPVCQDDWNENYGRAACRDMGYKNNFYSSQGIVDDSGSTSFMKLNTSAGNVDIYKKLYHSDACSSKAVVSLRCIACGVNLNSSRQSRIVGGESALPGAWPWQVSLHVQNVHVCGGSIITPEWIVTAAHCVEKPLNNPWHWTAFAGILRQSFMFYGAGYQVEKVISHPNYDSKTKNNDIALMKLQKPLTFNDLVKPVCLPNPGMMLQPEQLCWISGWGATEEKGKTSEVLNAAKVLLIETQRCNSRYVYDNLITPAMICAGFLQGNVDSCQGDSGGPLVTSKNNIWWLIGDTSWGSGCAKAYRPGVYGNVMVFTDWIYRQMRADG

| SMILES | Activity in the PP entry assay (in words) [1] | Calu3 cytotoxicity Efficacy (Calu3 cells) [%] | Activity in the PP entry assay (in words) ([1]; listed as Gabexate) | Activity in the PP entry assay (in words) ([1]; listed as gabexate) | TMPMSS2 Efficacy (TMPRSS2) [%] | IC50 (in vitro) [µM] |
| --- | --- | --- | --- | --- | --- | --- |
| COC(=O)[C@H](Cc1cccc(C(=N)N)c1)[C@@H](C)NC(=O)c1ccc(-c2cc[n+]([O-])cc2)cc1 [NCGC00378763, Otamixaban] | efficient activity | 0 |  |  |  |  |
| CCOC(=O)c1ccc(OC(=O)CCCCCNC(=N)N)cc1 [NCGC00025297, Gabexate] |  | 0 | inactive | did not exhibit activity |  |  |
| CN(C)C(=O)COC(=O)Cc1ccc(OC(=O)c2ccc(NC(=N)N)cc2)cc1 [NCGC00167526, Camostat] | high potency and efficacy | 0 |  |  | 100 |  |
| C=Cc1cc(C(=O)Nc2ccc(C(=N)N)cc2)c(-c2ccc(C(=O)NCC3CC3)nc2C(=O)O)cc1OC [NCGC00522636, Avoralstat] | comparable inhibition activity to camostat |  |  |  |  |  |
| N=C(N)c1ccc2cc(OC(=O)c3ccc(N=C(N)N)cc3)ccc2c1 [NCGC00160398, Nafamostat] | high potency and efficacy | 38.74 |  |  |  | 15.8 |
